# Test results reported in patent publication US20250177292A1, “METHOD FOR TREATMENT OF PARKINSON'S DISEASE” (NeuroDerm, Ltd., priority 2013, published 2025).
# Columns and labels:
# [1] = Titration with acetic or lactic acid: pH and physical stability (Table D); format: physicochemical
# Text: Formulations containing 6/1.5% and 5.4/1.5% LD/CD and varying L-Arg concentrations were titrated with acetic acid (100%) or lactic acid (85%), to study the effect of pH and L-Arg concentration on the physical stability of the solutions (Table D).
# [2] = Effect of carbidopa on stability of levodopa formulations in vitro (Tables F, G, FIG. 1A); format: physicochemical
# Protocol: (§1) 6% by weight levodopa and arginine solution with various concentrations (2, 1.5, 1, 0.5%) of carbidopa or no carbidopa were tested for physical stability in vitro. […] 1B. 7% by weight levodopa and arginine solution, with or without 2% carbidopa by weight, continuously administered in to the subcutaneous tissue of a 5×5 cm fresh, full-thickness pig skin.
# The effect of carbidopa on levodopa formulations was investigated. Levodopa (LD) formulations were prepared with 0, 0.5, 1, 1.5 and 2% by weight carbidopa (CD) and a constant concentration of arginine.
# In an additional experiment, LD formulations were prepared with 0, 0.5, 1 and 2% CD and respective concentrations of arginine.
# [3] = system: pig skin; assay: Continuous administration into full-thickness pig skin ex vivo (FIG. 1B); details: 7% LD/arginine solution with 2% CD, 0.08 ml/h×18 h, 37° C.
# Protocol: as §1, with “FIGS. 1A-1B show the effect of carbidopa on the stability of levodopa in vitro and ex vivo: 1A. 6%” for “6%”
# A 7% LD/arginine solution, with or without 2% CD, was continuously administered at 0.08 ml/h×18 h, 37° C. into a 5×5 cm fresh, full-thickness pig skin.
# [4] = Stability of carbidopa formulations with and without levodopa (Table H); format: physicochemical; details: in the presence of LD
# Text: The effect of levodopa on the stability of carbidopa was investigated. Table H indicates results.
# It appears that LD may protect CD from degradation.
# [5] = system: pigs; details: pig, in vivo, sc
# Protocol: The effect of carbidopa on levodopa local toxicity was investigated in pigs: solutions containing 6% LD and 0, 0.5 or 1% CD with the respective amount of arginine (13.5, 14.2 or 14.8%, respectively) were continuously administered SC to pigs at 0.16 ml/h×24 h. Each formulation was administered to 2 pigs. Skin samples were collected 8±1 days thereafter.
# [6] = Plasma LD, CD and 3-OMD during continuous SC LD/CD with oral entacapone in human volunteers (FIG. 6); format: in vivo, human
# Protocol: A single center, double-blind, randomized, placebo-controlled, study was conducted with six healthy Caucasian males volunteers, aged 18-40 years old. LD (6%)/CD (1.5%) was administered at a rate of […], corresponding to 360 mg of LD and 90 mg of CD per 24 hours. […] Plasma LD, CD and 3-OMD concentrations were quantified at pre-determined time points.
# [7] = cited from earlier work
# [8] = cited from earlier work; remark: listed apart in the source
smiles,measurement,setting,value
O=C1O[C@H]([C@@H](O)CO)C(O)=C1O [ascorbic acid],Reduction of the pH as compared to Na-ascorbate,[1],0.1-0.15 units
"C[C@@](Cc1ccc(O)c(O)c1)(NN)C(=O)O [CD, carbidopa]",Effect on the chemical stability of levodopa,[2]; Table F,does not have a significant effect
same,Dark yellow color formation,"[2]; in the absence of air (N2 in the head space), 0.5% carbidopa",sufficient to inhibit this color formation
same,Dark yellow color formation,"[2]; in the presence of air, 6% levodopa and arginine solution with 0.5-2% carbidopa",prevented dark yellow color formation
same,Oxidation of LD ex vivo (black by-products),[3],lack of black by-products formation
same,Oxidation of LD ex vivo (black by-products),[3]; listed as carbidopa,inhibition of oxidation
same,Sensitivity of CD to oxidation and degradation,[4],more stable in the presence of LD
same,Local levodopa dependent subcutaneous toxicity,[5],reduces the severity and extent
"CCN(CC)C(=O)/C(C#N)=C/c1cc(O)c(O)c([N+](=O)[O-])c1 [E, entacapone]",Steady state of plasma concentrations of LD,"[6]; 24 hours after LD/CD infusion initiation, 9 hours after entacapone dosing initiation",did not reach a steady state
same,Plasma concentrations of 3-OMD,"[6]; human, in vivo",significantly reduced
same,Blood level of levodopa,"[6]; male, human, in vivo",about 620 ng/ml
same,Increase of the blood level of levodopa,"[6]; male, human, in vivo",more than 40%
same,Increase in the level of levodopa,[7]; according to Nyholm et al.,up to 33%
same,Reduction of the dose of levodopa and carbidopa maintaining the desired blood level of levodopa,"[7]; oral 200 mg entacapone, intraintestinal infusion of levodopa and carbidopa",20%
same,Highest increase in the total amount of levodopa,"[8]; after 400 mg dose of entacapone, oral levodopa and carbidopa",about 33%
same,Total amount of carbidopa in blood,[8]; high doses of entacapone (400 mg and 800 mg),decrease the total amount of carbidopa in blood
